Experimental data from patent publication US20030096237A1, “Determination of the ability of patients to respond to a tumor treatment” (priority 2000, published 2003).

Tested on: CNCM I-2546
Assay: oligonucleotide array analysis of IFN-α modulated gene expression
Assay type: cell-based, human
Method: All these cell lines were cultured in RPMI medium supplemented with 10% FCS, glutamine (2 mM), sodium pyruvate (1 mM), non-essential amino acids and HEPES buffer (10 mM) (all from GIBCO Life Sciences, Paisley, UK). When confluent, the cells were passaged by trypsinization.
Cultured melanoma cells were harvested by scraping and total cellular RNA was extracted. 10 μg from each sample were used directly as templates for cDNA synthesis using a commercial kit (Roche Molecular Biochemicals, Rotkreuz, Switzerland). The T7 promoter sequence incorporated into the cDNA synthesis primer allowed template amplification and biotin labeling by in vitro transcription using a commercial kit (Affymetrix, Santa Clara, Calif.). After alkaline heat fragmentation […] was hybridised to the array (Affymetrix, Santa Clara, Calif.) and all subsequent steps were performed following standard procedures as supplied with the arrays. Raw data were collected with a confocal laser scanner (Hewlett Packard, Palo Alto, Calif.) using GeneChip software v3.1 (Affymetrix, Santa Clara, Calif.).
Raw data were normalized based on the total chip signal obtained upon hybridisation of ME15 cell line cDNA. This array was selected because: i) the 5′/3′ intensity ratio of control genes was smaller than 3; ii)>25% of the genes are called “present” by Genechip; iii) the image appearance is homogeneous with low background and no sign of mechanical chip damage.
The normalized average difference (nAD) between the signals of the perfect and of the mismatch probesets for each gene was used as the expression level of a given gene. At least one nAD value in a pairwise comparison of data has to exceed 50 to be included. Based on nAD, change factors related to IFN-α exposure were also calculated. Negative nAD values were set to 20 in order to avoid the calculation of artificially high modifications. In order to exclude artefacts, only genes with robust change factors, greater than 2-fold, were included in the analysis. […] Genes were clustered according to their mode of regulation.
Total cellular RNA was extracted from the sensitive and resistant melanoma cell lines identified above, reverse transcribed and processed for hybridization to an oligonucleotide array (Hu6800FL, PN 900183) containing probe sets derived from 7000 full-length human genes. Expression levels for each gene were calculated as normalized average difference (nAD, see materials and methods).
Patterns of genes expressed in IFN-α sensitive and resistant melanoma cell lines were investigated upon 48 hour culture in the presence of IFN-α. CNCM I-2546 and CNCM I-2545 were studied in detail.
In Table 2 below, CNCM I-2546 and CNCM I-2545 cultured for 48 hours in the absence or in the presence of 100 U/ml IFN-α were used to assay cytokine modulated gene expression as matched with data obtained in fibrosarcoma cells. This analysis yielded six clusters of genes. […] Data are presented as average difference of signal intensity between match and mismatch probesets.
In Table 3 below, CNCM I-2546 and CNCM I-2545 cell lines cultured for 48 hours in the absence or in the presence of 100 U/ml IFN-α were used to identify novel cytokine induced genes whose expression was not found to be modulated in fibrosarcoma cells. Cluster 1 includes genes inducible in the CNCM I-2546 sensitive but not in the CNCM I-2545 resistant cell line. Cluster 2 comprises genes inducible in both lines. Data are presented as average difference of signal intensity between match and mismatch probesets.

[1] = CNCM I-2546, IFN-α 100 U/ml 48 hours

change factor (CF) D32050 alanyl-trna synthetase [1]: 19.33 | change factor (CF) D78132 rheb gene, ras-related gtp binding protein gene [1]: 1.58 | change factor (CF) L13210 mac-2 binding protein [1]: 3.54 | change factor (CF) L35249 vacuolar h + -atpase mr 56,000 subunit (ho57) [1]: 1.47 | change factor (CF) L37043 casein kinase i epsilon [1]: 21.05 | change factor (CF) L40387 thyroid receptor interactor (trip14) [1]: 3.25 | change factor (CF) L42243 ifnar2 gene (interferon receptor) [1]: −1.3 | change factor (CF) M19650 2′,3′-cyclic nucleotide 3prime-phosphodiesterase [1]: 3.89 | change factor (CF) U18018 ela enhancer binding protein (ela-f) [1]: 2.18 | change factor (CF) U47025 fetal brain glycogen phosphorylase b [1]: 3.79 | change factor (CF) U50327 protein kinase c substrate 80k-h gene (prkcsh) [1]: 2.9 | change factor (CF) U50648 interferon-inducible rna-dependent protein kinase (pkr) [1]: 2.55 | change factor (CF) U65579 mitochondrial nadh dehydrogenase-ubiquinone [1]: 2.43 | change factor (CF) U69126 fuse binding protein 2 (fbp2) [1]: 2.92 | change factor (CF) U70063 human acid ceramidase [1]: 1.57 | change factor (CF) U91316 acyl-coa thioester hydrolase [1]: 4.01 | change factor (CF) X70848 protein phosphatase 1, catalytic subunit [1]: 2.03 | change factor (CF) X90846 mixed lineage kinase 2 [1]: −1.46 | change factor (CF) X95325 dna binding protein a variant [1]: 5.47 | change factor (CF) Z26491 gene catechol o-methyltransferase [1]: 3.62 | change factor (CF) Z47055 farnesyl pyrophosphate synthetase like [1]: 1.01
Substance: IFN-α
change factor (CF) D28137 bst-2 [1]: 9.89 | change factor (CF) D49824 hla-b null allele [1]: 5.42 | change factor (CF) D50914 EST [1]: 2.26 | change factor (CF) HG658 major histocompatibility complex, class 1 c [1]: 9.85 | change factor (CF) HG1612 macmarcks [1]: 2.59 | change factor (CF) HG2917 major histocompatibility complex, class i, e [1]: 4.53 | change factor (CF) J00105 beta-2 microglobulin gene [1]: 4.86 | change factor (CF) J00212 leukocyte interferon (ifn-alpha) [1]: −1.82 | change factor (CF) J03909 gamma-interferon-inducible protein (ip-30) [1]: 1.85 | change factor (CF) J04164 interferon-inducible protein 27-sep [1]: 102.3 | change factor (CF) J04182 lysosomal membrane glycoprotein-1 (lamp1) [1]: 1.69 | change factor (CF) J04444 cytochrome c-1 gene [1]: 3.16 | change factor (CF) K01900 lymphocyte interferon alpha type 201 [1]: 0.55 | change factor (CF) K03515 neuroleukin [1]: 3.37 | change factor (CF) L07633 interferon-gamma [1]: 1.52 | change factor (CF) M13755 interferon-induced 17-kda/15-kda protein [1]: 34.8 | change factor (CF) M30818 interferon-induced cellular resistance mediator protein [1]: −3.88 | change factor (CF) M31013 nonmuscle myosin heavy chain (nmhc) [1]: 2.34 | change factor (CF) M34338 spermidine synthase [1]: 2.29 | change factor (CF) M60784 ul snrnp-specific protein [1]: 8 | change factor (CF) M65028 heterogeneous nuclear ribonucleoprotein a/b [1]: 1.13 | change factor (CF) M79462 pml-1 [1]: −1.15 | change factor (CF) M92642 alpha-1 type xvi collagen (col16a1) [1]: 0 | change factor (CF) M94880 mhc class i (hla-a*8001) [1]: 3.61 | change factor (CF) M97935 transcription factor isgf-3 [1]: 13.8 | change factor (CF) M98343 amplaxin (ems1) [1]: 6.05 | change factor (CF) S81914 iex-1 = radiation-inducible immediate-early gene [1]: 9.06 | change factor (CF) U01824 glutamate/aspartate transporter [1]: 3.55 | change factor (CF) U09579 melanoma differentiation associated (mda-6) [1]: 3.35 | change factor (CF) U18009 chromosome 17q21 clone lf113 [1]: 2.93 | change factor (CF) U22970 16-jun gene, interferon-inducible peptide (6-16) [1]: 53.95 | change factor (CF) U41515 dss1 [1]: −1.04 | change factor (CF) U51127 interferon regulatory factor 5 [1]: 4.8 | change factor (CF) U52513 rig-g [1]: 0.96 | change factor (CF) U53830 interferon regulatory factor 7a [1]: 10.85 | change factor (CF) U61263 acetolactate synthase homolog [1]: 2.09 | change factor (CF) U65932 extracellular matrix protein 1 (ecm1) [1]: 2.02 | change factor (CF) U72206 guanine nucleotide regulatory factor (lfp40) [1]: 3.06 | change factor (CF) U72882 interferon-induced leucine zipper protein (ifp35) [1]: 24.1 | change factor (CF) U78525 human eukaryotic translation initiation factor (eif3) [1]: 1.14 | change factor (CF) X04412 plasma gelsolin [1]: 2.48 | change factor (CF) X07730 prostate specific antigen [1]: 5.6 | change factor (CF) X15949 interferon regulatory factor-2 (irf-2) [1]: −2.35 | change factor (CF) X57351 1-8d gene from interferon-inducible gene family [1]: 113.8 | change factor (CF) X57522 ring4 cdna [1]: 3.85 | change factor (CF) X67325 p27 [1]: 19.5 | change factor (CF) X76538 mpv17 [1]: 3.06 | change factor (CF) X96401 rox protein [1]: 3.21 | change factor (CF) Y00264 amyloid a4 precursor [1]: 2.42 | change factor (CF) Z56281 interferon regulatory factor 3 [1]: 5.8 | nAD D28137 bst-2 (Table 3, CNCM I-2546 (+) IFN-α 100 U/ml 48 hours, (−) 28): 305 | change factor (CF) D28137 bst-2 (Table 3, CNCM I-2546, IFN-α 100 U/ml 48 hours): 9.89
